Read-outs that look alike come from different tables or passages of the source.
Assays:
PANC-1 cells = assay: CellTiter-Glo luminescent cell viability assay, PANC-1; settings: 72 h, mean ± SD, n = 2; for Cell Viability (% of Control) 2.8 µM / Cell Viability (% of Control) 8.3 µM / Cell Viability (% of Control) 25 µM: PANC-1; for viability at 2.8 µM / viability at 8.3 µM / viability at 25 µM: Homo sapiens, PANC-1, 72 h; for viability at 2.8 µM: read-out: Cell Viability (% of Control) 2.8 µM, PANC-1; for viability at 8.3 µM: read-out: Cell Viability (% of Control) 8.3 µM, PANC-1; for viability at 25 µM: read-out: Cell Viability (% of Control) 25 µM, PANC-1
Fadu cells = assay: CellTiter-Glo luminescent cell viability assay, Fadu; settings: 72 h, mean ± SD, n = 2; for Cell Viability (% of Control) 2.8 µM / Cell Viability (% of Control) 8.3 µM / Cell Viability (% of Control) 25 µM: Fadu; for viability at 2.8 µM / viability at 8.3 µM / viability at 25 µM: Homo sapiens, FaDu; for viability at 2.8 µM: read-out: Cell Viability (% of Control) 2.8 µM, Fadu; for viability at 8.3 µM: read-out: Cell Viability (% of Control) 8.3 µM, Fadu; for viability at 25 µM: read-out: Cell Viability (% of Control) 25 µM, Fadu

Row | Compound | Cell Viability (% of Control) 2.8 µM (PANC-1 cells; second-set screening) | Cell Viability (% of Control) 8.3 µM (PANC-1 cells; second-set screening) | Cell Viability (% of Control) 25 µM (PANC-1 cells; second-set screening) | Cell Viability (% of Control) 2.8 µM (Fadu cells; second-set screening) | Cell Viability (% of Control) 8.3 µM (Fadu cells; second-set screening) | Cell Viability (% of Control) 25 µM (Fadu cells; second-set screening) | viability at 2.8 µM (PANC-1 cells; second-set screening) | viability at 8.3 µM (PANC-1 cells; second-set screening) | viability at 25 µM (PANC-1 cells; second-set screening) | viability at 2.8 µM (Fadu cells; second-set screening) | viability at 8.3 µM (Fadu cells; second-set screening) | viability at 25 µM (Fadu cells; second-set screening) | other results
1 | NCC#Cc1cccc(CN2C(=O)C3=C(CCN(Cc4cccc(-n5cc(-[c-]6cccc6)nn5)c4)C3)N3CCN=C23)c1.[Fe+2].c1cc[cH-]c1 [4a] |  |  |  |  |  |  |  |  |  |  |  |  | Cell Viability (% of Control) 2.8 µM (PANC-1 cells; first-set screening): 91 ± 4 % of Control; Cell Viability (% of Control) 8.3 µM (PANC-1 cells; first-set screening): 73 ± 9 % of Control; Cell Viability (% of Control) 25 µM (PANC-1 cells; first-set screening): 0 ± 0 % of Control; Cell Viability (% of Control) 2.8 µM (Fadu cells; first-set screening): 102 ± 1 % of Control; Cell Viability (% of Control) 8.3 µM (Fadu cells; first-set screening): 77 ± 3 % of Control; Cell Viability (% of Control) 25 µM (Fadu cells; first-set screening): 0 ± 0 % of Control
2 | O=C1C2=C(CCN(Cc3cccc(-n4cc(-c5ccccc5)nn4)c3)C2)N2CCN=C2N1Cc1cccc(C#CCO)c1 [4d] |  |  |  |  |  |  |  |  |  |  |  |  | viability at 2.8 µM (PANC-1 cells; first-set screening): 74 ± 3%; viability at 8.3 µM (PANC-1 cells; first-set screening): 60 ± 2%; viability at 25 µM (PANC-1 cells; first-set screening): 53 ± 8%; viability at 2.8 µM (Fadu cells; first-set screening): 37 ± 1%; viability at 8.3 µM (Fadu cells; first-set screening): 27 ± 3%; viability at 25 µM (Fadu cells; first-set screening): 23 ± 3%
3 | O=C1C2=C(CCN(Cc3ccc(-n4cc(-c5ccccc5)nn4)cc3)C2)N2CCN=C2N1Cc1ccc(F)cc1 [16f] |  |  |  |  |  |  |  |  |  |  |  |  | viability at 2.8 µM (PANC-1 cells; first-set screening): 81 ± 3%; viability at 8.3 µM (PANC-1 cells; first-set screening): 68 ± 4%; viability at 25 µM (PANC-1 cells; first-set screening): 60 ± 1%; viability at 2.8 µM (Fadu cells; first-set screening): 100 ± 1%; viability at 8.3 µM (Fadu cells; first-set screening): 94 ± 1%; viability at 25 µM (Fadu cells; first-set screening): 77 ± 4%
4 | NCC#Cc1cccc(CN2C(=O)C3=C(CCN(Cc4ccc(NC(=O)[c-]5cccc5)cc4)C3)N3CCN=C23)c1.[Fe+2].c1cc[cH-]c1 [23a] | 98 ± 7 % of Control | 104 ± 10 % of Control | 52 ± 55 % of Control | 109 ± 10 % of Control | 107 ± 7 % of Control | 61 ± 20 % of Control |  |  |  |  |  |  | 
5 | NCC#Cc1cccc(CN2C(=O)C3=C(CCN(Cc4ccc(NC(=O)c5ccccc5)cc4)C3)N3CCN=C23)c1 [23b] |  |  |  |  |  |  | 113 ± 15% | 106 ± 5% | 47 ± 39% | 117 ± 11% | 108 ± 7% | 77 ± 6% | 
6 | NCC#Cc1cccc(CN2C(=O)C3=C(CCN(Cc4ccc(C(=O)N[c-]5cccc5)cc4)C3)N3CCN=C23)c1.[Fe+2].c1cc[cH-]c1 [33a] | 102 ± 9 % of Control | 107 ± 9 % of Control | 4 ± 5 % of Control | 99 ± 2 % of Control | 93 ± 2 % of Control | 9 ± 8 % of Control |  |  |  |  |  |  | 
7 | NCC#Cc1cccc(CN2C(=O)C3=C(CCN(Cc4ccc(C(=O)Nc5ccccc5)cc4)C3)N3CCN=C23)c1 [33b] |  |  |  |  |  |  | 102 ± 9% | 109 ± 5% | 71 ± 32% | 120 ± 9% | 115 ± 6% | 80 ± 11% | 
8 | NCC#Cc1cccc(CN2C(=O)C3=C(CCN(Cc4ccc(-n5cc(-c6cccc(F)c6)nn5)cc4)C3)N3CCN=C23)c1 [36a] |  |  |  |  |  |  | 116 ± 8% | 0% | 0% | 105 ± 20% | 6 ± 5% | 0% | 
9 | NCC#Cc1cccc(CN2C(=O)C3=C(CCN(Cc4ccc(-n5cc(-c6ccc(F)cc6)nn5)cc4)C3)N3CCN=C23)c1 [36b] |  |  |  |  |  |  | 116 ± 7% | 0% | 0% | 114 ± 7% | 1 ± 1% | 0% | 
10 | NCC#Cc1cccc(CN2C(=O)C3=C(CCN(Cc4ccc(-n5cc(-c6cc(F)cc(F)c6)nn5)cc4)C3)N3CCN=C23)c1 [36c] |  |  |  |  |  |  | 111 ± 8% | 0% | 0% | 111 ± 10% | 5 ± 5% | 0% | 
11 | NCc1cccc(CN2C(=O)C3=C(CCN(Cc4ccc(-n5cc(-[c-]6cccc6)nn5)cc4)C3)N3CCN=C23)c1.[Fe+2].c1cc[cH-]c1 [37a] | 118 ± 4 % of Control | 123 ± 5 % of Control | 16 ± 8 % of Control | 106 ± 10 % of Control | 70 ± 20 % of Control | 0 ± 0 % of Control |  |  |  |  |  |  | 
12 | NCc1cccc(CN2C(=O)C3=C(CCN(Cc4ccc(-n5cc(-c6ccccc6)nn5)cc4)C3)N3CCN=C23)c1 [37b] |  |  |  |  |  |  | 110 ± 5% | 113 ± 3% | 5 ± 6% | 108 ± 7% | 91 ± 12% | 13 ± 6% | 
13 | CN(C)CC#Cc1cccc(CN2C(=O)C3=C(CCN(Cc4ccc(-n5cc(-[c-]6cccc6)nn5)cc4)C3)N3CCN=C23)c1.[Fe+2].c1cc[cH-]c1 [39a] | 112 ± 7 % of Control | 62 ± 72 % of Control | 35 ± 41 % of Control | 99 ± 9 % of Control | 45 ± 52 % of Control | 13 ± 15 % of Control |  |  |  |  |  |  | 
14 | CN(C)CC#Cc1cccc(CN2C(=O)C3=C(CCN(Cc4ccc(-n5cc(-c6ccccc6)nn5)cc4)C3)N3CCN=C23)c1 [39b] |  |  |  |  |  |  | 107 ± 3% | 25 ± 20% | 2 ± 3% | 96 ± 4% | 15 ± 8% | 1 ± 1% | 
15 | O=C1C2=C(CCN(Cc3ccc(-n4cc(-[c-]5cccc5)nn4)cc3)C2)N2CCN=C2N1Cc1cccc(C#CCN2CCCCC2)c1.[Fe+2].c1cc[cH-]c1 [40a] | 119 ± 4 % of Control | 72 ± 61 % of Control | 61 ± 67 % of Control | 105 ± 5 % of Control | 81 ± 21 % of Control | 45 ± 34 % of Control |  |  |  |  |  |  | 
16 | O=C1C2=C(CCN(Cc3ccc(-n4cc(-c5ccccc5)nn4)cc3)C2)N2CCN=C2N1Cc1cccc(C#CCN2CCCCC2)c1 [40b] |  |  |  |  |  |  | 125 ± 5% | 12 ± 10% | 1 ± 1% | 92 ± 9% | 60 ± 3% | 24 ± 11% | 
17 | CN1CCN(CC#Cc2cccc(CN3C(=O)C4=C(CCN(Cc5ccc(-n6cc(-c7ccccc7)nn6)cc5)C4)N4CCN=C34)c2)CC1 [41b] |  |  |  |  |  |  | 110 ± 6% | 0% | 0% | 106 ± 1% | 30 ± 28% | 3 ± 1% | 
18 | O=C1C2=C(CCN(Cc3ccc(-n4cc(-[c-]5cccc5)nn4)cc3)C2)N2CCN=C2N1Cc1cccc(C#CCN2CCOCC2)c1.[Fe+2].c1cc[cH-]c1 [42a] | 132 ± 4 % of Control | 75 ± 31 % of Control | 58 ± 36 % of Control | 121 ± 3 % of Control | 112 ± 11 % of Control | 55 ± 12 % of Control |  |  |  |  |  |  | 
19 | O=C1C2=C(CCN(Cc3ccc(-n4cc(-c5ccccc5)nn4)cc3)C2)N2CCN=C2N1Cc1cccc(C#CCN2CCOCC2)c1 [42b] |  |  |  |  |  |  | 94 ± 5% | 82 ± 5% | 59 ± 3% | 108 ± 7% | 91 ± 12% | 13 ± 6% | 

Source: paper PMC11642016 (International Journal of Molecular Sciences, 2024)
